One assay has as its system MIA PaCa-2 cells. The experiment in a line: Cell viability assay (CCK-8). Type of assay: cell-based, human. As to conditions: for cell viability in NHE1-silenced cells: NHE1 KD MIA PaCa-2 cells. As to the method: Cell viability assay. Cell viability was determined with Cell Counting Kit-8 assay (CCK-8 assay kit, Glpbio). Cells were plated in 96-well plates at a density of 3000 cells (MIA PaCa-2) or 1500 cells (KC6141) per well and incubated overnight prior to treatment. EIPA (10 μM), MRT68921 (600 nM) or erlotinib (2 μM, Sigma) were added to the wells for 72 and 96 hrs. Next, 10 μL of CCK-8 was added to each well. The optical density was read at 450 nm using a microplate reader (FilterMax F5, Molecular Devices, USA) at day 0, 1, 2, 3, and 4. For glutamine-deprivation assays, cells in 96-well plates were rinsed briefly in PBS and incubated in the 0.2 mM glutamine. Glutamine-free DMEM medium was supplemented with 0.2 mM glutamine in the presence of 10% dialysed FBS and 25 mM HEPES. For some conditions, the medium was supplemented with a final concentration of 2% BSA (Fraction V, fatty-acid-, nuclease and protease-free, Calbiochem). For all experiments, media were replaced every 24 hrs. Viable cell counts were obtained using CCK-8 assay described as above.
(§1) In some embodiments, cells were plated in 96-well plates coated with or without ECM at a density of 3000 cells (MIA PaCa-2, 1444, 1305, COLO 357/FG) or 1500 cells (KC6141) per well and incubated overnight prior to treatment. EIPA (10.5 μM), IPI549 (600 nM), MBQ-167 (500 nM), MRT68921 (600 nM) or erlotinib (2 μM, Sigma), ML385 (10 μM, Sigma), HCQ (10 μM or 80 μM) or their combinations were added to the wells for 24, 72 or 96 hrs. Next, 10 μL of CCK-8 was added to each well. The optical density was read at 450 nm using a microplate reader (FilterMax F5, Molecular Devices, USA) at day 0, 1, 2, 3, and 4. For glutamine-deprivation assays, cells in 96-well plates were rinsed briefly in PBS and incubated in the 0.2 mM glutamine. Glutamine-free DMEM medium was supplemented with 0.2 mM glutamine in the presence of 10% dialyzed FBS and 25 mM HEPES. For glucose-deprivation assays, cells in 96-well plates were rinsed briefly in PBS and incubated in the 0.5 mM glucose. Glucose-free DMEM medium was supplemented with 0.5 mM glucose in the presence of 10% dialyzed FBS and 25 mM HEPES. For some conditions, the medium was supplemented with a final concentration of 2% BSA (Fraction V, fatty-acid-, nuclease and protease-free, Calbiochem). For all experiments, media were replaced every 24 hrs. Viable cell counts were obtained using CCK-8 assay described as above.

The subject of assay [1] is 1444 primary human PDAC cells. Kind of assay: TMR-DEX macropinosome uptake assay. As to conditions: IKKα^Δ 1444 cells, 75 μM EIPA. Type of assay: cell-based. As to the method:
Cell imaging. Immunostaining was performed as described^44. Cells were cultured on coverslips and fixed in 4% PFA for 10 min at room temperature. After washing twice in PBS, cells were incubated in PBS containing 10% FBS to block nonspecific sites of antibody adsorption. The cells were then incubated with the appropriate primary antibodies (diluted 1:100) and secondary antibodies (diluted 1:500) in PBS containing 10% FBS with or without 0.1% saponin. For cell macropinosome visualization, 24 hrs after seeding, the cells were serum starved for 18 hrs. Macropinosomes were marked using a high-molecular-mass (70 KD) TMR-Dextran (Invitrogen)-uptake assay, wherein TMR-DEX was added to serum-free medium at a final concentration of 1 mg/ml for 30 min at 37° C. At the end of the incubation period, the cells were rinsed five times in cold PBS and immediately fixed in 4% PFA. For tissue macropinosome visualization^45, fresh pancreata were cut into pieces with an approximate 5-mm cuboidal shape. […]
Quantification and statistics. To quantify the number of LC3 puncta, a total of 30 cells were recorded and analyzed using the LAS X measurement program on the TCS SPE Leica. Macropinosomes were quantified by using the ‘Analyze Particles’ feature in ImageJ (National Institutes of Health). […]

For assay [2], the system named is 1444 primary human PDAC cells. The experiment in a line: Cell viability assay (CCK-8). The class given is cell-based. As to the method: as §1
Assay [3] has as its system 1305 primary human PDAC cells. Kind of assay: Cell viability assay (CCK-8). As to conditions: IKKα^low 1305 cells, 3 days. The class given is cell-based. As to the method: as §1

“Also recorded” adds a separate entry of the source.

Take `CN1CCc2cc(Nc3ncc(C4CC4)c(NCCCNC(=O)C4CCC4)n3)ccc2C1` [MRT68921]: the “cell viability in NHE1-silenced cells” value in the assay with MIA PaCa-2 cells (3 days) is listed as “severely compromised cell viability”.
Take `CCN(c1nc(N)c(C(=O)N=C(N)N)nc1Cl)C(C)C` [EIPA, 5-(N-ethyl-N-isopropyl) amiloride]: the “macropinocytosis (TMR-DEX labeling)” value in assay [1] is “inhibited; also recorded: suppressed”. Moreover, the “sensitivity of IKKα^Δ and ATG7^Δ cells to EIPA (CCK-8)” value in assay [2] (IKKα^Δ / ATG7^Δ 1444 cells (functional TP53)) was “highly sensitive”. The “cell viability (total viable cells relative to day 0)” value in assay [2] (WT, IKKα^Δ and ATG7^Δ 1444 cells, complete medium, EIPA 10.5 μM, days 0-4) is given as “suppression of cell viability”; in the assay with MIA PaCa-2 cells (WT and IKKα^Δ MIA PaCa-2 cells, complete medium, EIPA 10.5 μM) it was “suppression of cell viability”. Moreover, the “sensitivity to single agent (cell viability)” value in assay [3] is given as “very sensitive”; in the assay on MIA PaCa-2 cells (ATG7^Δ or IKKα-deficient MIA PaCa-2 cells, 3 days), “very sensitive”. Moreover, the “sensitivity of IKKα- or ATG7-deficient cells to EIPA (CCK-8)” value in the assay with MIA PaCa-2 cells (IKKα^Δ / ATG7^Δ vs WT MIA PaCa-2 cells (TP53 mutated), complete medium) is reported as “much more sensitive; also recorded: highly sensitive”. Further, in the assay with MIA PaCa-2 cells (3 days), the “cell viability in NHE1-silenced cells” value is given as “EIPA-insensitive”. The “proliferation restored by albumin supplementation” value in the assay on MIA PaCa-2 cells (WT and IKKα KO MIA PaCa-2 cells, 0.2 mM glutamine with albumin, 3 days) was “completely abrogated”. Further, in the assay with MIA PaCa-2 cells (WT, IKKα KO, ATG7 KO MIA PaCa-2 cells, complete medium, EIPA 10 μM, days 0-4), the “enhanced proliferation caused by loss of IKKα or ATG7” value was “abrogated”.

Values taken from patent US12458630B2, “Combination therapy for cancer” (The Regents of the University of California, priority 2020, dated 2025).
